Experimental data from patent US20220226508A1, “METHODS AND COMPOSITIONS FOR TREATING EPILEPSY” (THE REGENTS OF THE UNIVERSITY OF CALIFORNIA, priority 2019, published 2022).
“Also recorded” adds a separate entry of the source. Like-named read-outs stand apart in the source and are kept apart here.

Key:
scn1lab mutant zebrafish [1] = experiment: Locomotion assay of high-velocity seizure-like swim behavior; type: in vivo, zebrafish (Danio rerio)
From the text: Zebrafish maintenance. Zebrafish were raised under standard laboratory conditions in accordance with requirements outlined in the Guide for the Care and Use of Animals (ebrary Inc., 2011) and experiments were approved by the Institutional Animal Care and Use Committee (protocol #AN108659-03). Embryos were obtained by natural spawning of scn1lab (didy^s552) heterozygous animals that had been outcrossed to TL strain. Homozygous scn1lab mutants (n=2500) have dispersed melanosomes and appear visibly darker by 3 dpf compared to WT larvae.
Seizure monitoring. At 5 dpf individual zebrafish larvae were placed into a single well of a clear flat-bottomed 96-well microplate containing embryo media. Larvae were selected randomly as sex determination is not possible at this stage of development. All drug screening experiments were conducted in an unbiased manner by investigators blinded to the test compounds and all files coded for post hoc analysis. Microplates were placed inside the DanioVision and acclimated for 20 min at room temperature. Locomotion plots were obtained for each well at a recording epoch of 10 min using EthoVision XT software (DanioVision, Noldus Information Technology). Seizure scoring was performed using the following three-stage scale established for pentylenetetrazole-induced seizures: Stage 0, no or very little swim activity; Stage I, increased, brief bouts of swim activity; Stage II, rapid “whirlpool-like” circling swim behavior; and Stage III, paroxysmal whole-body clonus-like convulsions, and a brief loss of posture. WT fish are typically scored at Stage 0 or I. Plots were analyzed for distance travelled (in millimeters) and mean velocity (in millimeters per second). After 90 mins of drug exposure larvae were examined for toxic side-effects. Compounds that decreased or stopped the larva heartbeat, or reduced or eliminated the escape response when touched, were considered toxic.
Statistics. Data are presented as the mean±standard error of the mean (SEM), unless otherwise stated. For behavior analysis, the threshold for a change in mean swim velocity ≥40% (>1.5×SD of 250 control treated scn1lab) is considered significant. For comparison between more than two groups one-way ANOVA analysis was used. […] Differences considered statistically significant are indicated with asterisks (*P<0.05; **P<0.01).

scn1lab mutant zebrafish [2] = experiment: Local field potential (LFP) electrophysiology of electrographic seizure events; type: in vivo, zebrafish (Danio rerio)
Experimental: For electrophysiology studies, zebrafish larvae were anesthetized with cold and immobilized in 1.2% agarose; local field potential (LFP) recordings were obtained from forebrain or optic tectum structures using a single-electrode approach, as previously described (Baraban, S. C. et al., Neuroscience, 131, 759-768, 2005). Agarose-embedded LFP recording sessions of 10 min were obtained at 1 kHz. Epileptiform events were identified post hoc and defined as multi-spike or poly-spike upward or downward membrane deflections greater than 3× baseline noise level and 150-250 ms in duration (interictal-like) or greater than 5× baseline noise, multi-spike and >500 ms in duration (ictal-like); both events were counted using threshold detection settings in Clampfit (Molecular Devices; Sunnyvale, Calif.). During electrophysiology experiments larvae were continuously monitored for blood flow and heart rate using an Axiocam digital camera at video frame rate.
Monitoring electrographic brain activity to confirm seizure suppression is an essential assay to eliminate false positives from behavioral testing (Griffin, A. et al., Frontiers in Pharmacology, 9, 2018). By placing a microelectrode into a visually identified brain region of an agar-immobilized zebrafish larval, stable local field potential (LFP) recordings can be monitored for several hours (Baraban, S. C. et al., Nat Commun, 4, 2410, 2013). At 5 dpf LFP recordings of scn1Lab zebrafish larvae show an average of 250 abnormal electrographic seizure events during a 10 min recording epoch.

human 5-HT2AR = target: T1, human 5-HT2AR (Homo sapiens, UniProt P28223); details: read-out: binding affinity (Ki) 5-HT2A / 5-HT2AR, cited from earlier work
T1 construct: expressed in transfected cells

5-HT1A = target: T2, 5-HT1A (Homo sapiens, UniProt P08908); details: read-out: binding affinity (Ki) 5-HT1A; cited from earlier work
T2 sequence (P08908 1-422): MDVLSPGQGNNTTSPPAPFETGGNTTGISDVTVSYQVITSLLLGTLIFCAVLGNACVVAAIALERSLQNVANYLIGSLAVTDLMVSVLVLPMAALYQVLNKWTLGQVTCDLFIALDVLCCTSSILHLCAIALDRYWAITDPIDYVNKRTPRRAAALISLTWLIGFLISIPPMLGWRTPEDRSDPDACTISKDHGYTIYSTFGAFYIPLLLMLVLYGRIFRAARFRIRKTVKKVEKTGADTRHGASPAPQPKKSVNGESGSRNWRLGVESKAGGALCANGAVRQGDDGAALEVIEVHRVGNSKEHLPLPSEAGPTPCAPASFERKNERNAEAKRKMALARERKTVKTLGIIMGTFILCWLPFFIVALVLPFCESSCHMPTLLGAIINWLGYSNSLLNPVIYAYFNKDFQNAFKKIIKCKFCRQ

5-HT7 = 5-HT7 (Homo sapiens, UniProt P34969); details: read-out: binding affinity (Ki) 5-HT7; cited from earlier work
5-HT Transporter = 5-HT Transporter (Homo sapiens, UniProt P31645); details: read-out: binding affinity (Ki) 5-HT Transporter; cited from earlier work
5-HT1B = 5-HT1B (Homo sapiens, UniProt P28222); details: read-out: binding affinity (Ki) 5-HT1B; cited from earlier work
5-HT1D = 5-HT1D (Homo sapiens, UniProt P28221); details: read-out: binding affinity (Ki) 5-HT1D; cited from earlier work
5-HT6 = 5-HT6 (Homo sapiens, UniProt P50406); details: read-out: binding affinity (Ki) 5-HT6; cited from earlier work
Adrenergic Alpha1B = target: T3, Adrenergic Alpha1B (Homo sapiens, UniProt P35368); details: read-out: binding affinity (Ki) Adrenergic Alpha1B; cited from earlier work
T3 sequence (P35368 1-520): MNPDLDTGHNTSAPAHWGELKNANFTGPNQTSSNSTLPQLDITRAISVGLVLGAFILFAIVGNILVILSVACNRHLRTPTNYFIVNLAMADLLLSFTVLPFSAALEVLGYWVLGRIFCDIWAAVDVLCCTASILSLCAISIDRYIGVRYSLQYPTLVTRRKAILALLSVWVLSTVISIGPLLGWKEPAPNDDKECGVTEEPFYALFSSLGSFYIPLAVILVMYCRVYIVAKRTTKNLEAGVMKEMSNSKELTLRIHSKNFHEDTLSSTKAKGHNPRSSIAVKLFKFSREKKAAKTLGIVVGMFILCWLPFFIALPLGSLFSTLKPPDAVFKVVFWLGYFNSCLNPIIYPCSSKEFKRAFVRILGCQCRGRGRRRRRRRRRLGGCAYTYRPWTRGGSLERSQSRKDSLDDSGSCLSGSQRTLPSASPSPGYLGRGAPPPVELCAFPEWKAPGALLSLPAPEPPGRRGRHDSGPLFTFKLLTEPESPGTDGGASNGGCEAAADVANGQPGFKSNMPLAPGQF

5-HT5 = 5-HT5 (Homo sapiens, UniProt P47898); details: read-out: binding affinity (Ki) 5-HT5; cited from earlier work
[3] = target: Norepinephrine Transporter (Homo sapiens, UniProt P23975); details: read-out: binding affinity (Ki) Norepinephrine Transporter; cited from earlier work
human 5-HT2BR = target: T4, human 5-HT2BR (Homo sapiens, UniProt P41595); details: known drugs and commercial compounds; read-out: binding affinity (Ki) 5-HT2B / 5-HT2BR; cited from earlier work
T4 construct: expressed in transfected cells

human 5-HT2CR = target: T5, human 5-HT2CR (Homo sapiens, UniProt P28335); details: known drugs and commercial compounds; read-out: binding affinity (Ki) 5-HT2C / 5-HT2CR; cited from earlier work
T5 construct: expressed in transfected cells
T5 sequence (P28335 33-458): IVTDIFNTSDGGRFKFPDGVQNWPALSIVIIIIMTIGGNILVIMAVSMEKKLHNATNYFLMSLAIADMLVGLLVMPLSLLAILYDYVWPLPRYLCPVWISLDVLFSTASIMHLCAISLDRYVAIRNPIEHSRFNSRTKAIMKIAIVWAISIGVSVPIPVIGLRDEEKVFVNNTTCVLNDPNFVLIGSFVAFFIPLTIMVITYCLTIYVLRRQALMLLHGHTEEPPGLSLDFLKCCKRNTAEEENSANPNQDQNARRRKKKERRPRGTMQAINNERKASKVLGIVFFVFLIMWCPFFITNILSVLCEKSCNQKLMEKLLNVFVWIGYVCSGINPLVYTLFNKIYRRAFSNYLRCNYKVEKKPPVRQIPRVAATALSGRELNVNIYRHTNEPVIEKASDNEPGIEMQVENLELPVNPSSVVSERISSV

Histamine H3 = Histamine H3 (Homo sapiens, UniProt Q9Y5N1); details: read-out: binding affinity (Ki) Histamine H3; cited from earlier work
human H1 receptor = human H1 receptor (Homo sapiens, UniProt P35367); details: read-out: binding affinity (Ki) Histamine H1; cited from earlier work
Chain of human H1 receptor (P35367 whole entry): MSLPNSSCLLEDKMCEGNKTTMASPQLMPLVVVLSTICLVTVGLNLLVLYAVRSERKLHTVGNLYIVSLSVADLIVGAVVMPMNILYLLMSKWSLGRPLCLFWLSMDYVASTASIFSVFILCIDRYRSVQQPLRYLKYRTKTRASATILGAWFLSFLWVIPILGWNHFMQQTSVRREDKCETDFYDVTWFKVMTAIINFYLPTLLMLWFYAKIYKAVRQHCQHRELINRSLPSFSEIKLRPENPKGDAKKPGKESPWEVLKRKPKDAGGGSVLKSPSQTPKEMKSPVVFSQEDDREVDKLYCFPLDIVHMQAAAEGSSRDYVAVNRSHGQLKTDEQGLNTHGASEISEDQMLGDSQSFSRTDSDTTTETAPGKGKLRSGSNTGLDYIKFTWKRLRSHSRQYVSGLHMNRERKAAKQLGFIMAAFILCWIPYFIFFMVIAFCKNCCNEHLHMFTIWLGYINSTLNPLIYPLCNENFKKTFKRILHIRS

Chain of 5-HT7 (P34969 whole entry, species assumed): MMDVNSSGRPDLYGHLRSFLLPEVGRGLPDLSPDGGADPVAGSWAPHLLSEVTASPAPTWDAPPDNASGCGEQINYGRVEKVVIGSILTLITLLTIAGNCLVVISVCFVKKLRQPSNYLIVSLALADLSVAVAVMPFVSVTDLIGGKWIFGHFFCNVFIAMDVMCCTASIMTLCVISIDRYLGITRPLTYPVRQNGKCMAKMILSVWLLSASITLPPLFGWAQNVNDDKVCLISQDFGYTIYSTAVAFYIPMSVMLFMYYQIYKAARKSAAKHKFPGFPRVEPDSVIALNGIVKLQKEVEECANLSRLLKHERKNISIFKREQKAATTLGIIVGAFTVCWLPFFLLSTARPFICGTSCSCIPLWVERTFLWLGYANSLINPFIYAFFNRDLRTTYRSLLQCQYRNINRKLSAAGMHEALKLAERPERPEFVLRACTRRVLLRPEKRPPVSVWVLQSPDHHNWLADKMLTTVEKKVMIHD
T1 sequence (P28223 whole entry): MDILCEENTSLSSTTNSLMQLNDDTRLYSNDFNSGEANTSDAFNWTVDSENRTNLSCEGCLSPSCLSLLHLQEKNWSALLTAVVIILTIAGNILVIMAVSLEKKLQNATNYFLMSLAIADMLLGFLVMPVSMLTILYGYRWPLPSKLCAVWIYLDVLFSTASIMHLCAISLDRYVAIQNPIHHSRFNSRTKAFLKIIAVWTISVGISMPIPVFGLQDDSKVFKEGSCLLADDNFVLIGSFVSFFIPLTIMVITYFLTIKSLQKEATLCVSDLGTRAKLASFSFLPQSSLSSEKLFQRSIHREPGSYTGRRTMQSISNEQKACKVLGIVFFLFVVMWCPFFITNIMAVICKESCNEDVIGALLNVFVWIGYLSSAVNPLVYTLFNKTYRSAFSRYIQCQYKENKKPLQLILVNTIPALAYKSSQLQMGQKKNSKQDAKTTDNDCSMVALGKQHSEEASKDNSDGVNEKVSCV
Chain of 5-HT6 (P50406 whole entry, species assumed): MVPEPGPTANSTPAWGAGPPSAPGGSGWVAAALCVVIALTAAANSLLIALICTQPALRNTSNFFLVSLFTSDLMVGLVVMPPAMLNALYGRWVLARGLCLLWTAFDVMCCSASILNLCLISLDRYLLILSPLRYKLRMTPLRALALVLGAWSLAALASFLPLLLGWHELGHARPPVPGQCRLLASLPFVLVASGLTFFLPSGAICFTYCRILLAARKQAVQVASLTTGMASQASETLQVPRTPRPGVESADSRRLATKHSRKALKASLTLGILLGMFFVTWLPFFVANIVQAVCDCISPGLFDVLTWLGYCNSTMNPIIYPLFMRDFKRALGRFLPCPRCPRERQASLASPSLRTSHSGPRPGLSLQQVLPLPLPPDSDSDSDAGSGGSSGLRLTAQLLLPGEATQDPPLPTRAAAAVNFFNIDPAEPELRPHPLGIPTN
Chain of 5-HT1B (P28222 whole entry, species assumed): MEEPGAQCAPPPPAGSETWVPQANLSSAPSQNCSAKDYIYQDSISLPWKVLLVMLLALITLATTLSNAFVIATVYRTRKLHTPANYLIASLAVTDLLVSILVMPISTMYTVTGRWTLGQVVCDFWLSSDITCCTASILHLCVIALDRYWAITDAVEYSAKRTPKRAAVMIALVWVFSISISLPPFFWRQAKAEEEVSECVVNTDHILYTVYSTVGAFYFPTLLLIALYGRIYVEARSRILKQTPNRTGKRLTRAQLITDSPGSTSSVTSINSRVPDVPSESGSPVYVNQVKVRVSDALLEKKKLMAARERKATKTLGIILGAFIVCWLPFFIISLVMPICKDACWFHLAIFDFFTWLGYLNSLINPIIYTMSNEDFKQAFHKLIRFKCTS
Chain of Norepinephrine Transporter (P23975 whole entry): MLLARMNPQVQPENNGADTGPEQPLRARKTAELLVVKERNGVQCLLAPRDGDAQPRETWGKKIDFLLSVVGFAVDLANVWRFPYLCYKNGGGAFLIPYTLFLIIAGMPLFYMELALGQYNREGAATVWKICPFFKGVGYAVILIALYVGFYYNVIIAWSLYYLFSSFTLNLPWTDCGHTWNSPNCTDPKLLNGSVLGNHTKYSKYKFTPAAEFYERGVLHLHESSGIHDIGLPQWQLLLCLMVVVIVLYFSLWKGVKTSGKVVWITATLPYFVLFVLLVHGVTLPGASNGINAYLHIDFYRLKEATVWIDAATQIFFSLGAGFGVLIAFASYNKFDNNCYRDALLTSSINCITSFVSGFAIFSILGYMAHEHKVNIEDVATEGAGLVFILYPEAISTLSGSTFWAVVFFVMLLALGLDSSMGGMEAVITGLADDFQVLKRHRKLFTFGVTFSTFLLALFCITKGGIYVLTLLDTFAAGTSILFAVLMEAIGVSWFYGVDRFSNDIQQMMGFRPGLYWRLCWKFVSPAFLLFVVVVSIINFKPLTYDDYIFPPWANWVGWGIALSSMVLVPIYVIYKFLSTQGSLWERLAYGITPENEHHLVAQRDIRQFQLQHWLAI
Chain of 5-HT Transporter (P31645 whole entry, species assumed): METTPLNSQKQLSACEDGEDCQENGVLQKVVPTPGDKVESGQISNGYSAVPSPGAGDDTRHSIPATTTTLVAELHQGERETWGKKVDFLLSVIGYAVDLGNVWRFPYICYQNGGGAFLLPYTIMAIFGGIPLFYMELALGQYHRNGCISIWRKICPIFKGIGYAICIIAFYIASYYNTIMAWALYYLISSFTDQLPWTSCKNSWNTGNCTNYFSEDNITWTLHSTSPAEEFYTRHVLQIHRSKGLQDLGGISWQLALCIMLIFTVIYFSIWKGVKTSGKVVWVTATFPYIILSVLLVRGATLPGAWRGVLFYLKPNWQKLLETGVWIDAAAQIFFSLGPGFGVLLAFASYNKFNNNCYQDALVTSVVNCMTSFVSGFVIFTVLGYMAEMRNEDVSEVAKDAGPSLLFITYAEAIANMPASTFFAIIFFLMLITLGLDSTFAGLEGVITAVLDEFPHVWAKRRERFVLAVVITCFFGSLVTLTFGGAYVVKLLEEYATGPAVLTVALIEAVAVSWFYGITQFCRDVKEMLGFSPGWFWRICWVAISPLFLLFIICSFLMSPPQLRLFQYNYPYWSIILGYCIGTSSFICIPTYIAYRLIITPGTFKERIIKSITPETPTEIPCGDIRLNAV
Chain of Histamine H3 (Q9Y5N1 whole entry): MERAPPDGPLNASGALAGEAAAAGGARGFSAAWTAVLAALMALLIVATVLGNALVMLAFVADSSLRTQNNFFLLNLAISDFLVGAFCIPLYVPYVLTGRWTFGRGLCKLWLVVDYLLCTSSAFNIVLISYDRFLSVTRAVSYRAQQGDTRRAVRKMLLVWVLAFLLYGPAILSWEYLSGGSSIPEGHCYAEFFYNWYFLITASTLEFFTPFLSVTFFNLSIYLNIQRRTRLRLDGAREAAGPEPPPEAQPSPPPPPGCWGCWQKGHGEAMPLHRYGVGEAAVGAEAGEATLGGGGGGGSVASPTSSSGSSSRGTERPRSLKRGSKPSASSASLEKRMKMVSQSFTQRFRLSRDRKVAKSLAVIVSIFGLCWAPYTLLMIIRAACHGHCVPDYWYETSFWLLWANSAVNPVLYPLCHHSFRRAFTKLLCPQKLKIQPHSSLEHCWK
Chain of 5-HT5 (P47898 whole entry, species assumed): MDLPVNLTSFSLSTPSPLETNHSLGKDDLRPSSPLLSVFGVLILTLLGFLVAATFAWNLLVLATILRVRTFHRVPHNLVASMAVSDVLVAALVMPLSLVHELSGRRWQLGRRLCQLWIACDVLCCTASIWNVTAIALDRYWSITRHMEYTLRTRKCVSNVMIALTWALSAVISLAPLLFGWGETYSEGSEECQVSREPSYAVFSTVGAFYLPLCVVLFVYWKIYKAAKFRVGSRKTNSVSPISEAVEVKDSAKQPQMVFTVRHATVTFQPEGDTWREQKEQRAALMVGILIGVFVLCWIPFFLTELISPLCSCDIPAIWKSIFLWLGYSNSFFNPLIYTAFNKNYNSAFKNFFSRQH
Chain of 5-HT1D (P28221 whole entry, species assumed): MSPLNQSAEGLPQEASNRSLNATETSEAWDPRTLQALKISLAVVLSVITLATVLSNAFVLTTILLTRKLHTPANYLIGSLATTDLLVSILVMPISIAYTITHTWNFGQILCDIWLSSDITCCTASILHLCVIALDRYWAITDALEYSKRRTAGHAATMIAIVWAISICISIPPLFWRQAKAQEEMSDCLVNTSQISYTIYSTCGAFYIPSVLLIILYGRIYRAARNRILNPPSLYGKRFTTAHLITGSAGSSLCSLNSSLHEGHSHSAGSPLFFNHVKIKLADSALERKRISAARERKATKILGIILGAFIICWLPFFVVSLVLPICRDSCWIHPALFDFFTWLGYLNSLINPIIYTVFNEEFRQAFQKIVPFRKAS

Question: Which “effect on seizure-like swim behavior (change in mean velocity)” value (scn1lab mutant zebrafish [1]; commercial 5-HT2BR/dopamine agonists, three concentrations, 30 and 90 min exposure, threshold ≥40%) does the source give for `CC(N)Cc1ccc2ccoc2c1` (centres unmarked) [Compound 6-APB, 6-APB] here?
Answer: The value was “suppressed convulsive swim behaviors in a concentration-dependent manner”.

Question: What about the “frequency of electrographic seizure (epileptiform) events” value (scn1lab mutant zebrafish [2]; 250 μM, 10 min LFP recording, 5 dpf larvae) of the same molecule?
Answer: Its value is “significant changes in the frequency of events; also recorded: significantly suppressed the frequency of electrographic seizure events”.

Question: What about the Ki (human 5-HT2AR; known drugs and commercial compounds) of the same molecule?
Answer: Its Ki is 1.93 µM.

Question: And the Ki (5-HT1A)?
Answer: Its Ki is 1.28 µM.

Question: And the Ki (5-HT7)?
Answer: The Ki was 0.155 µM.

Question: And the Ki (5-HT Transporter)?
Answer: Its Ki is 2.7 µM.

Question: Which Ki (5-HT1B) does the source give for `CCNC(C)Cc1cccc(C(F)(F)F)c1` (centres unmarked) [FEN] here?
Answer: The Ki was 1.84 µM.

Question: And the Ki (5-HT1D)?
Answer: Its Ki is 1.26 µM.

Question: And the Ki (5-HT6)?
Answer: Its Ki is 9.08 µM.

Question: And the Ki (5-HT7)?
Answer: The Ki was 7.31 µM.

Question: What about the Ki (Adrenergic Alpha1B) of the same molecule?
Answer: The Ki was 0.142 µM.

Question: Which results are given for `C[C@H]1CNCCc2ccc(Cl)cc21` [LOR]?
Answer: Ki (5-HT1A): 0.7 µM; Ki (5-HT5): 3.71 µM; Ki (5-HT6): 1.98 µM; Ki (5-HT7): 0.636 µM; Ki [3]: 1.4 µM

Question: For `Clc1ccc(Cn2c(CN3CCCC3)nc3ccccc32)cc1` [clemizole], which “inhibition of spontaneous convulsive behaviors” value (scn1lab mutant zebrafish [1]; phenotype-based screen) is on record?
Answer: The value was “effective inhibitor”.

Question: And the “inhibition of electrographic seizures” value (scn1lab mutant zebrafish [2]; phenotype-based screen)?
Answer: The value was “effective inhibitor”.

Question: What about the Ki (human 5-HT2AR) of the same molecule?
Answer: The Ki was 0.239 µM.

Question: What about the Ki (human 5-HT2BR) of the same molecule?
Answer: Its Ki is 0.025 µM.

Question: What about the Ki (human 5-HT2CR) of the same molecule?
Answer: The Ki was 0.197 µM.

Question: What about the Ki (Histamine H3) of the same molecule?
Answer: Its Ki is 0.402 µM.

Question: And the Ki (human H1 receptor)?
Answer: The Ki was 0.0013 µM.
